{"source": "the NIST ThermoML archive (doi:10.1021/je400531a)", "key": {"[1]": {"test": "refractive index (Na D-line) (dimensionless)", "conditions": "293.15 K; 101.33 kPa; Liquid; Standard Abbe refractometry"}, "[2]": {"conditions": "Liquid; for mass density: 293.15 K, 101.33 kPa, Vibrating tube method; for vapor or sublimation pressure: Ebulliometric method (Recirculating still)"}}, "note": "Several values for one entry are separate records, joined by “and”; a condition that tells them apart may be missing. Equal entries are not always repeated. ± gives the expanded uncertainty stated by the source.", "data": [{"smiles": "CC#N", "note": "[acetonitrile]", "values": [{"measurement": "refractive index", "setting": "[1]", "value": "1.3425 ± 0.004"}, {"measurement": "mass density", "setting": "[2]", "value": "782 ± 2", "unit": "kg/m3"}, {"measurement": "vapor or sublimation pressure", "setting": "[2]; 307.22 K", "value": "18.08 ± 1", "unit": "kPa"}, {"measurement": "vapor or sublimation pressure", "setting": "[2]; 311.3 K", "value": "21.45 ± 1", "unit": "kPa"}, {"measurement": "vapor or sublimation pressure", "setting": "[2]; 314.05 K", "value": "24 ± 1", "unit": "kPa"}, {"measurement": "vapor or sublimation pressure", "setting": "[2]; 316.73 K", "value": "26.73 ± 1", "unit": "kPa"}, {"measurement": "vapor or sublimation pressure", "setting": "[2]; 320.8 K", "value": "31.35 ± 1", "unit": "kPa"}, {"measurement": "vapor or sublimation pressure", "setting": "[2]; 323.52 K", "value": "34.82 ± 1", "unit": "kPa"}, {"measurement": "vapor or sublimation pressure", "setting": "[2]; 325.8 K", "value": "37.88 ± 1", "unit": "kPa"}, {"measurement": "vapor or sublimation pressure", "setting": "[2]; 328.95 K", "value": "42.59 ± 1", "unit": "kPa"}, {"measurement": "vapor or sublimation pressure", "setting": "[2]; 330.5 K", "value": "45.06 ± 1", "unit": "kPa"}, {"measurement": "vapor or sublimation pressure", "setting": "[2]; 333.02 K", "value": "49.34 ± 1", "unit": "kPa"}, {"measurement": "vapor or sublimation pressure", "setting": "[2]; 335.2 K", "value": "53.31 ± 1", "unit": "kPa"}, {"measurement": "vapor or sublimation pressure", "setting": "[2]; 338.45 K", "value": "59.68 ± 1", "unit": "kPa"}, {"measurement": "vapor or sublimation pressure", "setting": "[2]; 341.17 K", "value": "65.47 ± 1", "unit": "kPa"}, {"measurement": "vapor or sublimation pressure", "setting": "[2]; 343.43 K", "value": "70.59 ± 1", "unit": "kPa"}, {"measurement": "vapor or sublimation pressure", "setting": "[2]; 346.6 K", "value": "78.43 ± 1", "unit": "kPa"}, {"measurement": "vapor or sublimation pressure", "setting": "[2]; 350.67 K", "value": "89.46 ± 1", "unit": "kPa"}, {"measurement": "vapor or sublimation pressure", "setting": "[2]; 354.75 K", "value": "101.64 ± 1 kPa and 101.3 ± 1.1 kPa"}]}, {"smiles": "C[S+](C)[O-]", "note": "[dimethyl sulfoxide]", "values": [{"measurement": "refractive index", "setting": "[1]", "value": "1.4751 ± 0.004"}, {"measurement": "mass density", "setting": "[2]", "value": "1101 ± 2", "unit": "kg/m3"}, {"measurement": "vapor or sublimation pressure", "setting": "[2]; 401.95 K", "value": "15.28 ± 1", "unit": "kPa"}, {"measurement": "vapor or sublimation pressure", "setting": "[2]; 405.11 K", "value": "17.11 ± 1", "unit": "kPa"}, {"measurement": "vapor or sublimation pressure", "setting": "[2]; 408.75 K", "value": "19.42 ± 1", "unit": "kPa"}, {"measurement": "vapor or sublimation pressure", "setting": "[2]; 411.45 K", "value": "21.32 ± 1", "unit": "kPa"}, {"measurement": "vapor or sublimation pressure", "setting": "[2]; 414.6 K", "value": "23.72 ± 1", "unit": "kPa"}, {"measurement": "vapor or sublimation pressure", "setting": "[2]; 419.36 K", "value": "27.76 ± 1", "unit": "kPa"}, {"measurement": "vapor or sublimation pressure", "setting": "[2]; 421.15 K", "value": "29.41 ± 1", "unit": "kPa"}, {"measurement": "vapor or sublimation pressure", "setting": "[2]; 424.1 K", "value": "32.35 ± 1", "unit": "kPa"}, {"measurement": "vapor or sublimation pressure", "setting": "[2]; 430.45 K", "value": "39.43 ± 1", "unit": "kPa"}, {"measurement": "vapor or sublimation pressure", "setting": "[2]; 433.59 K", "value": "43.43 ± 1", "unit": "kPa"}, {"measurement": "vapor or sublimation pressure", "setting": "[2]; 436.75 K", "value": "47.75 ± 1", "unit": "kPa"}, {"measurement": "vapor or sublimation pressure", "setting": "[2]; 439.92 K", "value": "52.42 ± 1", "unit": "kPa"}, {"measurement": "vapor or sublimation pressure", "setting": "[2]; 442.85 K", "value": "57.05 ± 1", "unit": "kPa"}, {"measurement": "vapor or sublimation pressure", "setting": "[2]; 447.83 K", "value": "65.75 ± 1", "unit": "kPa"}, {"measurement": "vapor or sublimation pressure", "setting": "[2]; 455.74 K", "value": "81.72 ± 1", "unit": "kPa"}, {"measurement": "vapor or sublimation pressure", "setting": "[2]; 463.43 K", "value": "101.3 ± 5.2", "unit": "kPa"}, {"measurement": "vapor or sublimation pressure", "setting": "[2]; 463.45 K", "value": "100.76 ± 1 kPa and 101.3 ± 1.1 kPa"}]}, {"smiles": "O", "note": "[water]", "values": [{"measurement": "refractive index", "setting": "[1]", "value": "1.3312 ± 0.004"}, {"measurement": "vapor or sublimation pressure", "setting": "[2]; 320.37 K", "value": "10.74 ± 1", "unit": "kPa"}, {"measurement": "vapor or sublimation pressure", "setting": "[2]; 324.33 K", "value": "13.09 ± 1", "unit": "kPa"}, {"measurement": "vapor or sublimation pressure", "setting": "[2]; 326.63 K", "value": "14.66 ± 1", "unit": "kPa"}, {"measurement": "vapor or sublimation pressure", "setting": "[2]; 328.29 K", "value": "15.86 ± 1", "unit": "kPa"}, {"measurement": "vapor or sublimation pressure", "setting": "[2]; 333.57 K", "value": "20.33 ± 1", "unit": "kPa"}, {"measurement": "vapor or sublimation pressure", "setting": "[2]; 340.16 K", "value": "27.37 ± 1", "unit": "kPa"}, {"measurement": "vapor or sublimation pressure", "setting": "[2]; 343.85 K", "value": "32.16 ± 1", "unit": "kPa"}, {"measurement": "vapor or sublimation pressure", "setting": "[2]; 345.44 K", "value": "34.4 ± 1", "unit": "kPa"}, {"measurement": "vapor or sublimation pressure", "setting": "[2]; 347.83 K", "value": "38.07 ± 1", "unit": "kPa"}, {"measurement": "vapor or sublimation pressure", "setting": "[2]; 349.4 K", "value": "40.62 ± 1", "unit": "kPa"}, {"measurement": "vapor or sublimation pressure", "setting": "[2]; 351.8 K", "value": "44.82 ± 1", "unit": "kPa"}, {"measurement": "vapor or sublimation pressure", "setting": "[2]; 354.68 K", "value": "50.37 ± 1", "unit": "kPa"}, {"measurement": "vapor or sublimation pressure", "setting": "[2]; 358.64 K", "value": "58.91 ± 1", "unit": "kPa"}, {"measurement": "vapor or sublimation pressure", "setting": "[2]; 361.08 K", "value": "64.72 ± 1", "unit": "kPa"}, {"measurement": "vapor or sublimation pressure", "setting": "[2]; 362.59 K", "value": "68.63 ± 1", "unit": "kPa"}, {"measurement": "vapor or sublimation pressure", "setting": "[2]; 367.87 K", "value": "83.63 ± 1.1", "unit": "kPa"}, {"measurement": "vapor or sublimation pressure", "setting": "[2]; 373.15 K", "value": "101.31 ± 1.1 kPa and 101.3 ± 1.1 kPa"}]}]}
